Read-outs that look alike come from different tables or passages of the source.
Target: T1, RORγ ligand-binding domain fused to Gal4 (Homo sapiens, UniProt P51449)
T1 construct: Gal4 (galactose-responsive transcription factor); expressed in transfected cells; host or cells: HEK293
T1 sequence (P51449 269-508 limits assumed): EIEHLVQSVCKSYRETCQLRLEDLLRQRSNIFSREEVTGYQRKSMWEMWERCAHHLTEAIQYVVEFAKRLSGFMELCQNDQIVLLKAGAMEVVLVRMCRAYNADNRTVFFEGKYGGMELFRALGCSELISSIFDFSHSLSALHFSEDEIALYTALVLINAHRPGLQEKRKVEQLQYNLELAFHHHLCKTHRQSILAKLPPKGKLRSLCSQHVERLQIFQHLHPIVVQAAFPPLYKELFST
Test: RORγ Reporter Assay (Gal4)
Assay type: cell-based
Description: The HEK293 cell line is co-transfected transiently with two plasmids, one with the RORγ ligand-binding domain fused to galactose-responsive transcription factor (Gal4), and the other with the luciferase reporter gene and Gal binding sites (UAS). This construction allows to determine the RORγ activity in a cellular system through the measurement of luminescence.
A suspension of RORγ reporter cells was dispensed into plates and cultured 2 h at 37° C. and 5% CO2. Media formulation consisted in DMEM/F-12 medium (Gibco) supplemented with 10% heat inactivated FBS (Sigma-Aldrich), non-essential aminoacids (Sigma-Aldrich), 2 mM Glutamax (Gibco) and 100 U/mL penicillin (Sigma-Aldrich). Dose-response curves with compounds were prepared in 100% DMSO and further diluted 100-fold in culture medium. Compound solutions were added to the plate containing cells (final DMSO concentration of 0.1%) and incubated for 24 h at 37° C. and 5% CO2. Luciferase detection reagent was added to each well, and relative light units (RLUs) were quantified from each assay well using a plate reading luminometer.
Values of average RLU±S.D. were computed for all treatment sets, followed by the calculations of percent-reduction of RORγ activity in response to respective test compound. The following formula was used: activity=100*[1−[x test compound/average vehicle] where the theoretical minimum reduction (0% reduction).

[1] = HEK293 cells co-transfected with RORγ LBD-Gal4 and luciferase reporter, 24 h incubation, absolute EC50, read-out: EC50

SMILES	EC50 [1] [nM]	other results
NC(=O)CN1CC[C@H](CNc2ncnc(N(Cc3cnc(C(F)(F)F)nc3)C3CCC3)c2F)[C@@H](O)C1 (racemic) [Example A7-18, rac-2-((3R,4R)-4-(((6-(cyclobutyl((2-(trifluoromethyl)pyrimidin-5-yl)methyl)amino)-5-fluoropyrimidin-4-yl)amino)methyl)-3-hydroxypiperidin-1-yl)acetamide]	130	–
NC(=O)CN1CC[C@@H](CNc2ncnc(N(Cc3ccc(C(F)(F)F)nc3)C3CCC3)c2F)[C@H](O)C1 (racemic) [Example A7-23, rac-2-((3R,4R)-4-(((6-(cyclobutyl((6-(trifluoromethyl)pyridin-3-yl)methyl)amino)-5-fluoropyrimidin-4-yl)amino)methyl)-3-hydroxypiperidin-1-yl)acetamide]	81	–
NC(=O)CN1CC[C@@H](CNc2ncnc(N(Cc3ccc(C(F)(F)F)cn3)C3CCC3)c2F)[C@H](O)C1 (racemic) [Example A7-24, rac-2-((3R,4R)-4-(((6-(cyclobutyl((5-(trifluoromethyl)pyridin-2-yl)methyl)amino)-5-fluoropyrimidin-4-yl)amino)methyl)-3-hydroxypiperidin-1-yl)acetamide]	120	–
CCN(Cc1ccc(C(F)(F)F)cn1)c1ncnc(NC[C@@H]2CCN(CC(N)=O)C[C@H]2O)c1F (racemic) [Example A7-27, rac-2-((3R,4R)-4-(((6-(ethyl((5-(trifluoromethyl)pyridin-2-yl)methyl)amino)-5-fluoropyrimidin-4-yl)amino)methyl)-3-hydroxypiperidin-1-yl)acetamide]	540	–
NC(=O)CN1CC[C@@H](CNc2ncnc(N(CCF)Cc3ccc(C(F)(F)F)cc3)c2F)[C@H](O)C1 (racemic) [Example A7-30, rac-2-((3R,4R)-4-(((5-fluoro-6-((2-fluoroethyl)(4-(trifluoromethyl)benzyl)amino)pyrimidin-4-yl)amino)methyl)-3-hydroxypiperidin-1-yl)acetamide]	> 1000	–
NC(=O)CN1CC[C@@H](CNc2ncnc(N(Cc3ccc(C(F)(F)F)cc3)C3CC3)c2F)[C@@H](O)C1 (racemic) [Example A7-49, rac-2-((3R,4S)-4-(((6-(cyclopropyl(4-(trifluoromethyl)benzyl)amino)-5-fluoropyrimidin-4-yl)amino)methyl)-3-hydroxypiperidin-1-yl)acetamide]	168	–
CCN(Cc1ccc(-c2cnn(CCO)c2)cc1)c1ncnc(NC[C@@H]2CCN(CC(N)=O)C[C@H]2O)c1F (racemic) [Example A7-73, rac-2-((3R,4R)-4-(((6-(ethyl(4-(1-(2-hydroxyethyl)-1H-pyrazol-4-yl)benzyl)amino)-5-fluoropyrimidin-4-yl)amino)methyl)-3-hydroxypiperidin-1-yl)acetamide]	99	–
CCN(Cc1ccc(C(F)(F)CO)cc1)c1ncnc(NC[C@@H]2CCN(CC(N)=O)C[C@H]2O)c1F (racemic) [Example A7-79, rac-2-((3R,4R)-4-(((6-((4-(1,1-difluoro-2-hydroxyethyl)benzyl)(ethyl)amino)-5-fluoropyrimidin-4-yl)amino)methyl)-3-hydroxypiperidin-1-yl)acetamide]	164	–
CN(Cc1cccc(OC(F)(F)F)c1)c1ncnc(NC[C@@H]2CCN(CC(N)=O)C[C@H]2O)c1F (racemic) [Example F2-07, rac-2-((3R,4R)-4-(((5-fluoro-6-(methyl(3-(trifluoromethoxy)benzyl)amino)pyrimidin-4-yl)amino)methyl)-3-hydroxypiperidin-1-yl)acetamide]	–	EC50 (compounds of the present disclosure, value from Table 2 herein, read-out: Gal4 assay EC50): < 100 nM
NC(=O)CN1CC[C@H](CNc2ncnc(N(Cc3ccc(C(F)(F)F)cn3)C3CC3)c2F)[C@@H](F)C1 (relative stereo) [Example A7-04-2, rel-2-((3R,4R)-4-(((6-(cyclopropyl((5-(trifluoromethyl)pyridin-2-yl)methyl)amino)-5-fluoropyrimidin-4-yl)amino)methyl)-3-fluoropiperidin-1-yl)acetamide]	89	–
NC(=O)CN1CC[C@](O)(CNc2ncnc(N(Cc3ccccc3F)C3CC3)c2F)[C@@H](O)C1 (relative stereo) [Example D5-10, rel-2-((3R,4R)-4-(((6-(cyclopropyl(2-fluorobenzyl)amino)-5-fluoropyrimidin-4-yl)amino)methyl)-3,4-dihydroxypiperidin-1-yl)acetamide]	> 1000	–
NC(=O)CN1CC[C@H](CNc2ncnc(N(Cc3ccc(C(F)(F)F)cc3)C3CC3)c2F)[C@@H](F)C1 (single isomer, unassigned) [Example A7-05-1]	–	EC50 (compounds of the present disclosure, source: Table 2 herein, read-out: Gal4 assay EC50): < 100 nM

Now from value to compound, other results behind:

EC50 [1] [nM]	SMILES	other results
42	CC(C)N(Cc1ccc(C(F)(F)F)cc1)c1ncnc(NC[C@H]2CCN(CC(N)=O)C[C@@H]2O)c1F (racemic) [Example A7-19, rac-2-((3R,4R)-4-(((5-fluoro-6-(isopropyl(4-(trifluoromethyl)benzyl)amino)pyrimidin-4-yl)amino)methyl)-3-hydroxypiperidin-1-yl)acetamide]	–
26	CN(Cc1ccc(C(F)(F)F)cc1)c1ncnc(NC[C@H]2CCN(CC(N)=O)C[C@@H]2O)c1F (racemic) [Example A7-20, rac-2-((3R,4R)-4-(((5-fluoro-6-(methyl(4-(trifluoromethyl)benzyl)amino)pyrimidin-4-yl)amino)methyl)-3-hydroxypiperidin-1-yl)acetamide]	–
4	NC(=O)CN1CC[C@H](CNc2ncnc(N(Cc3ccc(C(F)(F)F)cc3F)C3CC3)c2F)[C@@H](O)C1 (racemic) [Example A7-22, rac-2-((3R,4R)-4-(((6-(cyclopropyl(2-fluoro-4-(trifluoromethyl)benzyl)amino)-5-fluoropyrimidin-4-yl)amino)methyl)-3-hydroxypiperidin-1-yl)acetamide]	–
3.9	NC(=O)C(C1CCOCC1)N1CC[C@@H](CNc2ncnc(N(Cc3ccc(C(F)(F)F)cc3)C3CC3)c2F)[C@H](O)C1 (mixture of isomers) [Example A7-71, rac-2-((3R,4R)-4-(((6-(Cyclopropyl(4-(trifluoromethyl)benzyl)amino)-5-fluoropyrimidin-4-yl)amino)methyl)-3-hydroxypiperidin-1-yl)-2-(tetrahydro-2H-pyran-4-yl)acetamide]	–
52	CCN(Cc1ccc(-c2cnn(C)c2)cc1)c1ncnc(NC[C@@H]2CCN(CC(N)=O)C[C@H]2O)c1F (racemic) [Example A7-72, rac-2-((3R,4R)-4-(((6-(ethyl(4-(1-methyl-1H-pyrazol-4-yl)benzyl)amino)-5-fluoropyrimidin-4-yl)amino)methyl)-3-hydroxypiperidin-1-yl)acetamide]	–
14	NC(=O)CN1CC[C@H](CNc2ncnc(N(Cc3ccc(C(F)(F)F)cc3)C3CC3)c2F)[C@@H](F)C1 (relative stereo) [Example A7-05-2, rel-2-((3R,4R)-4-(((6-(cyclopropyl(4-(trifluoromethyl)benzyl)amino)-5-fluoropyrimidin-4-yl)amino)methyl)-3-fluoropiperidin-1-yl)acetamide]	–
40	CC(C)N(Cc1ccc(C(F)(F)F)cc1)c1ncnc(NC[C@H]2CCN(CC(N)=O)C[C@@H]2O)c1F (relative stereo) [Example A7-19-1, rel-2-((3R,4R)-4-(((5-fluoro-6-(isopropyl(4-(trifluoromethyl)benzyl)amino)pyrimidin-4-yl)amino)methyl)-3-hydroxypiperidin-1-yl)acetamide]	–
70	CC(F)(F)c1ccc(CN(c2ncnc(NC[C@H]3CCN(CC(N)=O)C[C@@H]3O)c2F)C2CC2)cn1 (relative stereo) [Example A7-29-2, rel-2-((3R,4R)-4-(((6-(cyclopropyl((6-(1,1-difluoroethyl)pyridin-3-yl)methyl)amino)-5-fluoropyrimidin-4-yl)amino)methyl)-3-hydroxypiperidin-1-yl)acetamide]	–
43	CCN(Cc1ccc(C(F)(F)F)cc1)c1ncnc(NC[C@@H]2CCN(C(CCO)C(N)=O)C[C@H]2O)c1F (relative stereo) [Example A7-67, rel-2-((3R,4R)-4-(((6-(ethyl(4-(trifluoromethyl)benzyl)amino)-5-fluoropyrimidin-4-yl)amino)methyl)-3-hydroxypiperidin-1-yl)-4-hydroxybutanamide]	–
16	NC(=O)CN1CC[C@@](O)(CNc2ncnc(N(Cc3ccc(C(O)(C(F)(F)F)C(F)(F)F)cc3)C3CC3)c2F)[C@H](O)C1 (relative stereo) [Example D5-06, rel-2-((3R,4R)-4-(((6-(cyclopropyl(4-(1,1,1,3,3,3-hexafluoro-2-hydroxypropan-2-yl)benzyl)amino)-5-fluoropyrimidin-4-yl)amino)methyl)-3,4-dihydroxypiperidin-1-yl)acetamide]	–
